Data as given in patent publication US4698332A, “Expectorant” (Mect Corporation, priority 1984, dated 1987).

What was measured:
palatine mucosa of frog = test: Ciliary movement of frog palatine mucosa, particle transport method (Example 3, Tables 1-3); format: cell-based, bull frog
Description: Bull frogs (furnished by Saitama Test Animal) weighing 300 to 450 g were used regardless of sex.
N-acetylneuraminic acid and calcium salt of N-acetylneuraminic acid (provided by Kanto Ishiseiyaku Kabushiki Kaisha), as well as acetylcholine chloride (furnished by Sigma Kabushiki Kaisha) were used as the test substances.
Mucociliary transport was measured by the particle transport method. After decapitation of a frog, the surface of the palatine mucosa was separated with minimized damage and of fixed to a cork plate in a Petri dish which was then filled with 20 ml of Ringer's solution (trishydrochloric acid). The palatine mucosa was left in this state for 30 minutes before the commencement of measurement. For measurement, the Ringer's solution was removed and fine pieces of cork (capable of passing pharmaceutical sieve No. 5 but not capable of passing No. 6) were placed on the surface of the palatine mucosa, and the time (in seconds) required for the cork piece to move 1 cm was measured. The duration of movement, i.e., moving speed, was measured also in the state immediately after the removal of the Ringer's solution or pharmaceutical solution.

[1] = test system: ciliated cells from human airway and frog palate; test: Rotation of ciliated cell groups (Example 4); format: cell-based
Text: Using ciliated cells from human airway and frog palate, rotation of cell groups due to ciliary beat was observed before and after application of N-acetylneuraminic acid and calcium salt of N-acetylneuraminic acid, in order to confirm the effect of these agents on the cilitated cells.
Human ciliated cells were collected from a normal trachea by means of a branchoscope, the ciliated cells being separated by rubbing the bronchus while observing through the branchoscope, while the collection of frog cilitated cells was conducted by rubbing the palatine mucosta, without being specially careful. […] The groups of cells were transferred to a cover slip and one drop of chicken plasma (prepared by Difco Company) and one drop of 50% chicken embryo extract were added to the cells, thus forming clots. The rotary motion in the clots was recorded by means of a video recorder and the number of rotations per minute was measured.

[2] = test system: sputum of patients with chronic obstructive lung disease on frog palatine mucosa; test: Mucociliary transport rate (MTR) of treated sputum on frog palatine mucosa (Example 5); parameters: species or system human sputum; frog palatine mucosa; conditions: for MTR after treatment: 2 mg
Description: (§1) Mucociliary transport rate (hereinunder referred to as MTR), i.e. the rate of transport of sputum by cilia, was measured using frog palatine mucosa. At the same time, physicochemical properties of the sputum before and after application of N-acetylneuraminic acid were compared.
(§2) The sputum used as the specimens was collected from 12 samples of patients suffering from chronic obstructive lung disease. N-acetylneuraminic acid was added to the specimen sputum in the ratios of 5 mg/ml sputum and 1 mg/ml sputum, and the specimen was left for 1 hour at 4° C. before measurement. Sputum which has not been treated by N-acetylneuraminic acid was used as a comparison example. A palatine mucosa obtained from a decapitated frog head was kept at constant temperature and humidity until the mucus liquid of the frog itself depleted. The specimen sputum was placed on the dried palatine mucosa, and the speed of movement of the sputum was observed through a noumenal microscope, thus measuring the MTR. The pH value of the sputum was measured by means of an electronic model HM-SAp pH meter, while the spinnability was measured by a device developed by Nagaoka and Yamanaka (disclosed in Transactions of 2nd Symposium of Cough and sputum, published July 20, 1979). The yield value was measured by Dulfano's double-tube method which is shown in the American Review of Respiratory Diseases, Vol. 104, p88, 1971.

[3] = Physicochemical properties (pH, yield value, spinnability) of treated sputum (Example 5); parameters: species or system human; conditions: for Yield value after treatment / pH of sputum after treatment / Spinnability after treatment: 2 mg
Description: as §1, §2

[4] = Acute toxicity test of N-acetylneuraminic acid, mice (Example 6); parameters: species or system ICR mice; conditions: mouse, in vivo
Description: (§3) A test was conducted to examine the acute toxicity of N-acetylneuraminic acid, using mice and rats, by means of intravenous injection, subcutaneous injection, per os inhalation.
(§4) 13 to 15% (W/V) dissolved in distilled water
(§5) By Litchfield-Wilcoxon method.

[5] = Acute toxicity test of N-acetylneuraminic acid, rats (Example 6); format: in vivo, SD rats; conditions: rat, in vivo
Description: as §3
(§6) SD rats: 6 weeks old (7 weeks old in case of inhalation)
as §4, §5
(§7) Inhalation was conducted by 1hr exposure to mist.

rats = test: as above; format: in vivo, SD rats; conditions: inhalation, 1hr exposure to mist
Description: as §3, §6, §4, §5, §7

[6] = sample 5 (viscous sputum, 2 ml), before 18

CC(=O)N[C@H]1[C@H]([C@H](O)[C@H](O)CO)OC(O)(C(=O)O)C[C@@H]1O (stereo partly shown) [N-acetylneuraminic acid]
Movement (palatine mucosa of frog; 10^-4 g/ml, frog number 1): 17.3 s/cm | Movement (palatine mucosa of frog; 10^-4 g/ml, frog number 2): 22.0 s/cm | Movement (palatine mucosa of frog; 10^-4 g/ml, frog number 3): 20.7 s/cm | Movement (palatine mucosa of frog; 10^-4 g/ml, frog number 4): 22.0 s/cm | Movement (palatine mucosa of frog; 10^-5 g/ml, frog number 1): 21.3 s/cm | Acceleration (palatine mucosa of frog; 10^-5 g/ml, frog number 1, control = 0): 33.4% | Movement (palatine mucosa of frog; 10^-5 g/ml, frog number 2): 27.3 s/cm | Acceleration (palatine mucosa of frog; 10^-5 g/ml, frog number 2, control = 0): 16.5% | Movement (palatine mucosa of frog; 10^-5 g/ml, frog number 3): 28.7 s/cm | Acceleration (palatine mucosa of frog; 10^-5 g/ml, frog number 3, control = 0): 28.2% | Movement (palatine mucosa of frog; 10^-5 g/ml, frog number 4): 24.7 s/cm | activation at 10 µg/mL (palatine mucosa of frog; 10^-5 g/ml, frog number 4, control = 0, read-out: Acceleration): 31.4% | Effect on ciliary movement of palatine mucosa (palatine mucosa of frog; Tables 1 and 3): acceleration of the ciliary movement of palatine mucosa in a certain dose-dependency | Ciliary movement promoting effect compared with acetylcholine (palatine mucosa of frog; acetylcholine control at 10^-5 and 10^-4): substantially the same ciliary movement promoting effect as the acetylcholine | Increase of rotation speed (revolutions per minute) over Medium 199 at plateau ([1]; 10^-3 to 10^-2 mg/ml, 5, 10 and 15 minutes after application): about 25% | Effect on rotary motion of the cilium cells ([1]; 10^-4 to 10^-1 mg/ml): gradually accelerated starting immediately after the application | Change of MTR of sputum ([2]; 1 mg/ml, samples with reduced spinnability): tendency to increased MTR | MTR after treatment ([2]; sample 1 (viscous sputum, 2 ml), before 19): 38 mm/min | MTR after treatment ([2]; sample 2 (viscous sputum, 2 ml), before 8): 19 mm/min | MTR after treatment ([2]; sample 3 (pus sputum, 2 ml), before 20): 27 mm/min | MTR after treatment ([2]; sample 4 (viscous sputum, 2 ml), before 25): 29 mm/min | MTR after treatment [2, 6]: 30 mm/min | MTR after treatment ([2]; sample 6 (viscous sputum, 2 ml), before 15): 18 mm/min | Change of spinnability of sputum ([3]; 1 mg/ml): five samples showed a reduction, while one sample showed a slight increase | Change of yield value of sputum ([3]; 1 mg/ml): Increase in the yield value was observed in three samples, while three samples showed a reduction. The yield value was unchanged in the remaining one sample | Change of sputum pH value ([3]; 1 mg/ml, six samples): five out of six samples treated with 1 mg/ml of N-acetylneuraminic acid showed a reduction in pH value (pH 7.31 0.40), while the remaining one sample showed a slight increase in pH value | Yield value after treatment ([3]; sample 1 (viscous sputum, 2 ml), before 3.7): 11.5 mmH2 O | pH of sputum after treatment ([3]; sample 1 (viscous sputum, 2 ml), before 7.72): 7.35 | Spinnability after treatment ([3]; sample 1 (viscous sputum, 2 ml), before 55): 19 mm | Yield value after treatment ([3]; sample 2 (viscous sputum, 2 ml), before 0.1): 0.1 mmH2 O | pH of sputum after treatment ([3]; sample 2 (viscous sputum, 2 ml), before 7.52): 7.62 | Spinnability after treatment ([3]; sample 2 (viscous sputum, 2 ml), before 10): 3 mm | Yield value after treatment ([3]; sample 3 (pus sputum, 2 ml), before 2.7): 0.7 mmH2 O | Spinnability after treatment ([3]; sample 3 (pus sputum, 2 ml), before 5): 2 mm | pH of sputum after treatment ([3]; sample 3 (pus sputum, 2 ml), before 7.98): 7.20 | Yield value after treatment ([3]; sample 4 (viscous sputum, 2 ml), before 1.9): 3.2 mmH2 O | pH of sputum after treatment ([3]; sample 4 (viscous sputum, 2 ml), before 6.98): 6.84 | Spinnability after treatment ([3]; sample 4 (viscous sputum, 2 ml), before 22): 12 mm | Yield value after treatment ([3]; sample 5 (viscous sputum, 2 ml), before 2.2): 3.1 mmH2 O | pH of sputum after treatment ([3]; sample 5 (viscous sputum, 2 ml), before 7.24): 6.94 | Spinnability after treatment [3, 6]: 16 mm | pH of sputum after treatment ([3]; sample 6 (viscous sputum, 2 ml), before 8.16): 7.88 | Yield value after treatment ([3]; sample 6 (viscous sputum, 2 ml), before 14.3): 7.5 mmH2 O | Spinnability after treatment ([3]; sample 6 (viscous sputum, 2 ml), before 22): 26 mm | LD50 at 336 h ([4]; iv, mice F, 95% 2137-2925): 2500 mg/kg | LD50 at 336 h ([4]; iv, mice M, 95% 1441-2008): 1700 mg/kg | LD50 at 336 h ([4]; po, per os, mice F): > 5000 mg/kg | LD50 at 336 h ([4]; po, per os, mice M): > 5000 mg/kg | LD50 at 336 h ([4]; sc, subcutaneous, mice F): > 5000 mg/kg | LD50 at 336 h ([4]; sc, subcutaneous, mice M): > 5000 mg/kg | LD50 at 336 h ([5]; iv, rats F, 95% 1741-2030): 1880 mg/kg | LD50 at 336 h ([5]; iv, rats M, 95% 1748-2001): 1870 mg/kg | LD50 at 336 h ([5]; po, per os, rats F): > 5000 mg/kg | LD50 at 336 h ([5]; po, per os, rats M): > 5000 mg/kg | LD50 at 336 h ([5]; sc, subcutaneous, rats F): > 5000 mg/kg | LD50 at 336 h ([5]; sc, subcutaneous, rats M): > 5000 mg/kg | LD50 (rats; rats F): > 4.33 g/m^3 | LD50 (rats; rats M): > 4.33 g/m^3
